ChEMBL document CHEMBL5154933, “Development of Lipo-γ-AA Peptides as Potent Antifungal Agents” (J Med Chem, 2022)
Converted amounts (≈) assume the structure as drawn. The source made the active and inactive calls. No cut-off for these calls is given here.

Legend:
[1] = Toxicity against Galleria mellonella larva infected with Candida albicans SC5314 assessed as increase in survival rate at 8 mg/kg measured for 14 days; assay type: organism-based; conditions: in vivo, 336 h, time 14 day
Candida albicans [2] = experiment: Potentiation of antifungal activity against fluconazole-sensitive Candida albicans YEM12 overexpressing efflux pump MDR1 gene assessed as fold reduction in fluconazole MIC at 1 ug/ml incubated for 24 hrs by checkerboard broth microdilution assay; assay type: functional; conditions: dose 1 µg/ml
Cryptococcus neoformans [3] = experiment: Antifungal activity against Cryptococcus neoformans H99 assessed as fungal growth inhibition by broth microdilution assay; assay type: functional
Cryptococcus neoformans [4] = experiment: Antifungal activity against Cryptococcus neoformans 5-FC assessed as fungal growth inhibition by broth microdilution assay; assay type: functional
[5] = test system: Cryptococcus deuterogattii; experiment: Antifungal activity against Cryptococcus gattii VGII R265 assessed as fungal growth inhibition by broth microdilution assay; assay type: functional, Cryptococcus gattii species complex
Candida albicans [6] = experiment: Antifungal activity against Candida albicans SC5314 assessed as fungal growth inhibition by broth microdilution assay; assay type: functional
Candida albicans [7] = experiment: Antifungal activity against Candida albicans CARG5 assessed as fungal growth inhibition by broth microdilution assay; assay type: functional
Candida albicans [8] = experiment: Antifungal activity against Candida albicans CA17 assessed as fungal growth inhibition by broth microdilution assay; assay type: functional
Candida albicans [9] = experiment: Antifungal activity against Candida albicans 28A assessed as fungal growth inhibition by broth microdilution assay; assay type: functional
Candida parapsilosis = experiment: Antifungal activity against Candida parapsilosis ATCC 22019 assessed as fungal growth inhibition by broth microdilution assay; assay type: functional; conditions: Lodderomyces parapsilosis
Pichia kudriavzevii = experiment: Antifungal activity against Candida krusei ATCC6258 assessed as fungal growth inhibition by broth microdilution assay; assay type: functional
Mucor racemosus [10] = experiment: Antifungal activity against Mucor racemosus MZ140 assessed as fungal growth inhibition by broth microdilution assay; assay type: functional
Mucor racemosus [11] = experiment: Antifungal activity against Mucor racemosus R715 assessed as fungal growth inhibition by broth microdilution assay; assay type: functional
Aspergillus fumigatus [12] = experiment: Antifungal activity against Aspergillus fumigatus AF293 assessed as fungal growth inhibition by broth microdilution assay; assay type: functional
Aspergillus fumigatus [13] = experiment: Antifungal activity against Aspergillus fumigatus shjt40 assessed as fungal growth inhibition by broth microdilution assay; assay type: functional
[14] = Hemolytic activity in human RBC incubated for 1 hr by microplate reader method; assay type: toxicity, cell-based, Erythrocyte; conditions: red blood cells (erythrocytes)
Candida albicans [15] = experiment: Fungicidal activity against Candida albicans SC5314 assessed as fungal growth inhibition incubated for 24 hrs by resazurin dye based assay; assay type: functional
[16] = Selectivity ratio of HC50 for hemolytic activity in human RBC to MIC for antifungal activity against Cryptococcus neoformans H99; assay type: toxicity; conditions: red blood cells (erythrocytes)
[17] = Selectivity ratio of HC50 for hemolytic activity in human RBC to MIC for antifungal activity against Cryptococcus neoformans 5-FC; assay type: toxicity; conditions: red blood cells (erythrocytes)
[18] = Selectivity ratio of HC50 for hemolytic activity in human RBC to MIC for antifungal activity against Cryptococcus gattii R265; assay type: toxicity; conditions: red blood cells (erythrocytes)
[19] = Selectivity ratio of HC50 for hemolytic activity in human RBC to MIC for antifungal activity against Candida albicans SC5314; assay type: toxicity; conditions: red blood cells (erythrocytes)
[20] = Selectivity ratio of HC50 for hemolytic activity in human RBC to MIC for antifungal activity against Candida albicans CARG5; assay type: toxicity; conditions: red blood cells (erythrocytes)
[21] = Selectivity ratio of HC50 for hemolytic activity in human RBC to MIC for antifungal activity against Candida albicans CA17; assay type: toxicity; conditions: red blood cells (erythrocytes)
[22] = Selectivity ratio of HC50 for hemolytic activity in human RBC to MIC for antifungal activity against Candida albicans 28A; assay type: toxicity; conditions: red blood cells (erythrocytes)
[23] = Selectivity ratio of HC50 for hemolytic activity in human RBC to MIC for antifungal activity against Candida parapsilosis ATCC 22019; assay type: toxicity; conditions: red blood cells (erythrocytes)
[24] = Selectivity ratio of HC50 for hemolytic activity in human RBC to MIC for antifungal activity against Candida krusei ATCC6258; assay type: toxicity; conditions: red blood cells (erythrocytes)
[25] = Selectivity ratio of HC50 for hemolytic activity in human RBC to MIC for antifungal activity against Mucor racemosus MZ140; assay type: toxicity; conditions: red blood cells (erythrocytes)
[26] = Selectivity ratio of HC50 for hemolytic activity in human RBC to MIC for antifungal activity against Mucor racemosus R715; assay type: toxicity; conditions: red blood cells (erythrocytes)
[27] = Selectivity ratio of HC50 for hemolytic activity in human RBC to MIC for antifungal activity against Aspergillus fumigatus AF293; assay type: toxicity; conditions: red blood cells (erythrocytes)
[28] = Selectivity ratio of HC50 for hemolytic activity in human RBC to MIC for antifungal activity against Aspergillus fumigatus shjt40; assay type: toxicity; conditions: red blood cells (erythrocytes)
[29] = Cytotoxicity against HEK293T cells measured after 48 hrs by CCK8 assay; assay type: toxicity, cell-based, HEK-293T; conditions: human
Candida albicans [30] = experiment: Fungicidal activity against Candida albicans SC5314 at 8 times MIC50 measured after 10 mins by time-kill assay; assay type: functional, organism-based
Cryptococcus neoformans [31] = experiment: Fungicidal activity against Cryptococcus neoformans H99 at 4 times MIC50 measured after 10 to 25 mins by time-kill assay; assay type: functional, organism-based; conditions: time 10-25 min
Candida albicans [32] = experiment: Synergistic antifungal activity against fluconazole-resistant Candida albicans CARG5 assessed as fractional inhibitory concentration index incubated for 24 hrs by checkerboard broth microdilution assay; assay type: functional
Candida albicans [33] = experiment: Synergistic antifungal activity against fluconazole-resistant Candida albicans CARG5 assessed as reduction in fluconazole MIC at 1 microg/ml incubated for 24 hrs by checkerboard broth microdilution assay ( Rvb = > 128 microg/ml); assay type: functional; conditions: dose 1 µg/ml
Candida albicans [34] = experiment: Potentiation of antifungal activity against fluconazole-sensitive Candida albicans YEM13 overexpressing efflux pump MDR1 gene assessed as fold reduction in fluconazole MIC at 1 ug/ml incubated for 24 hrs by checkerboard broth microdilution assay; assay type: functional; conditions: dose 1 µg/ml
Cell membrane [35] = experiment: Induction of membrane permeabilization in Candida albicans SC5314 assessed as distruption of fungal cell membrane by measuring PI positive cells at 8 times MIC measured after 1 hrs by propidium iodide and DAPI staining based fluorescence microscopic analysis; assay type: subcellular
Cell membrane [36] = experiment: Induction of membrane permeabilization in Candida albicans SC5314 assessed as damage and rupture of fungal cell membrane at 8 times MIC incubated for 4 hrs by scanning electron microscopic analysis; assay type: subcellular
Candida albicans [37] = experiment: Induction of reactive oxygen species generation in Candida albicans SC5314 assessed as increase in fluorescence intensity incubated for 1 hr by DCF-DA staining based method; assay type: functional, organism-based; conditions: DDE = dose-dependent effect
Candida albicans [38] = experiment: Increase in intracellular fluconazole accumulation in fluconazole-resistant Candida albicans CARG5 at 1 ug/ml incubated for 1 hr by fluorescence based analysis; assay type: functional, cell-based; conditions: dose 1.0 µg/ml
Candida albicans [39] = experiment: Effect on efflux pump function in Candida albicans CARG5 assessed as increase in Nile red fluorescence at 1 ug/ml incubated for 1 hr by FACScan flow cytometer analysis; assay type: functional; conditions: dose 1.0 µg/ml
Candida albicans [40] = experiment: Antifungal activity against Candida albicans CARG5 infected in BALB/c mouse surgical wound model assessed as reduction in fungal burden smeared on wound at 8 mg/kg administered every 12 hrs for 48 hrs in presence of fluconazole; assay type: functional, organism-based
Cryptococcus neoformans [41] = experiment: Fungicidal activity against Cryptococcus neoformans H99 at 8 times of MIC measured after 10 to 25 mins by time-kill assay; assay type: functional, organism-based; conditions: time 10-25 min

With `CCCCCCCCCCCCCCCC(=O)N[C@@H](CCCN)C(=O)N[C@@H](Cc1ccccc1)CN(CC(N)=O)C(=O)CCN` the Activity [1] was “Non-Toxic”, the “fold change (FC)” value (Candida albicans [2]) was 2 and the MIC50 (Cryptococcus neoformans [3]) was 2 mg/L (≈ 3.17 µM). For the same molecule, the MIC50 (Cryptococcus neoformans [4]) was 2 mg/L (≈ 3.17 µM), the MIC50 [5] was 2 mg/L (≈ 3.17 µM) and the MIC50 (Candida albicans [6]) was 2 mg/L (≈ 3.17 µM). For the same molecule, the MIC50 (Candida albicans [7]) was 2 mg/L (≈ 3.17 µM), the MIC50 (Candida albicans [8]) was 2 mg/L (≈ 3.17 µM) and the MIC50 (Candida albicans [9]) was 2 mg/L (≈ 3.17 µM). The MIC50 (Candida parapsilosis) was 2 mg/L (≈ 3.17 µM), the MIC50 (Pichia kudriavzevii) was 2 mg/L (≈ 3.17 µM) and the MIC50 (Mucor racemosus [10]) was 8 mg/L (≈ 12.7 µM). It also gave an MIC50 (Mucor racemosus [11]) of 4 mg/L (≈ 6.34 µM), an MIC50 (Aspergillus fumigatus [12]) of 4 mg/L (≈ 6.34 µM) and an MIC50 (Aspergillus fumigatus [13]) of 4 mg/L (≈ 6.34 µM). The HC50 at 1 h [14] was > 250 µg/mL, the MFC (Candida albicans [15]) was 4 mg/L (≈ 6.34 µM) and the selectivity ratio [16] was ≤ 125. For the same molecule, the selectivity ratio [17] was ≤ 125, the selectivity ratio [18] was ≤ 125 and the selectivity ratio [19] was ≤ 125. The selectivity ratio [20] was ≤ 125, the selectivity ratio [21] was ≤ 125 and the selectivity ratio [22] was ≤ 125. For the same molecule, the selectivity ratio [23] was ≤ 125, the selectivity ratio [24] was ≤ 125 and the selectivity ratio [25] was ≤ 125. The selectivity ratio [26] was ≤ 125, the selectivity ratio [27] was ≤ 125 and the selectivity ratio [28] was ≤ 125. The IC50 at 48 h [29] was 32.2 mg/L (≈ 51 µM), the Activity (Candida albicans [30]) was “Active” and the Activity (Cryptococcus neoformans [31]) was “Active”. For the same molecule, the “fractional inhibitory concentration index (FICI)” value (Candida albicans [32]) was “<=0.5”, the MIC50 (Candida albicans [33]) was 1 mg/L and the “fold change (FC)” value (Candida albicans [34]) was 8. For the same molecule, the Activity (Cell membrane [35]) was “Active”, the Activity (Cell membrane [36]) was “Active” and the Activity (Candida albicans [37]) was “Dde”. For the same molecule, the Activity (Candida albicans [38]) was “Active”, the Activity (Candida albicans [39]) was “Active” and the Activity (Candida albicans [40]) was “Active”. The Activity (Cryptococcus neoformans [41]) was “Active”.
